Earlier results in patent publication US20140161820A1, “Short-Term Surrogate Test for Investigative Drugs” (priority 2012, published 2014).

How the values were obtained:
platelets = conditions: in vivo
[1] = target: T1, cholesteryl ester transfer protein (CETP) (Homo sapiens, UniProt P11597); conditions: phase III, treatment group receiving a combination of atorvastatin (Lipitor) and torcetrapib
T1 construct: host or cells: human trial subjects (endogenous plasma CETP)
T1 sequence (P11597 18-493): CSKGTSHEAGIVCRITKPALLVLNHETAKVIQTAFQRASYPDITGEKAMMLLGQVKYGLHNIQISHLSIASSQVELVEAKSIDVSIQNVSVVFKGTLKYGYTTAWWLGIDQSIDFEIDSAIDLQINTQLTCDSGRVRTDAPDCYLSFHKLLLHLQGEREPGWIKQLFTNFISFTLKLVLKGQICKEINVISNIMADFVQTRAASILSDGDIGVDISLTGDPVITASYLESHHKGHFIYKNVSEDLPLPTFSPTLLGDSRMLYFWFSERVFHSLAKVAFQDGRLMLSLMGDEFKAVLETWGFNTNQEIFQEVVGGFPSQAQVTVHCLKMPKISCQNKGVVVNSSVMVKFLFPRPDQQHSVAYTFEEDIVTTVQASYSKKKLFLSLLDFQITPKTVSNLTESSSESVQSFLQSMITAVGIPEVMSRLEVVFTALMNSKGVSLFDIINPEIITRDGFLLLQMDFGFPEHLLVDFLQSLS

Compound | time by which anti-platelet effects are measurable (platelets) | all-cause mortality [1]
CC(=O)Oc1ccccc1C(=O)O [aspirin] | ≤ 60 min | –
CCOC(=O)N1c2ccc(C(F)(F)F)cc2[C@@H](N(Cc2cc(C(F)(F)F)cc(C(F)(F)F)c2)C(=O)OC)C[C@H]1CC [torcetrapib] | – | excessive all-cause mortality
